≈ marks a conversion by molar mass, not a printed value. Calls of active or inactive are those of the source. The calls are words filed in the database; no cut-off is given here.
How the values were obtained:
Cryptococcus neoformans = assay: Antifungal activity against Cryptococcus neoformans ZKCC 2209 assessed as fungal growth inhibition measured after 72 hrs by double dilution method; format: functional
Candida albicans [1] = assay: Antifungal activity against Candida albicans ATCC SC5314 assessed as fungal growth inhibition measured after 72 hrs by double dilution method; format: functional
Pichia kudriavzevii = assay: Antifungal activity against Candida krusei ATCC 6258 assessed as fungal growth inhibition measured after 72 hrs by double dilution method; format: functional
Candida tropicalis = assay: Antifungal activity against Candida tropicalis ATCC 1369 assessed as fungal growth inhibition measured after 72 hrs by double dilution method; format: functional
Aspergillus fumigatus = assay: Antifungal activity against Aspergillus fumigatus KM8001 assessed as fungal growth inhibition measured after 72 hrs by double dilution method; format: functional
Candida albicans [2] = assay: Antifungal activity against Candida albicans ATCC SC5314 assessed as induction of ROS production by measuring fluorescence intensity incubated for 12 hrs by KGT010-1 staining based fluorescence microscopy; format: functional, organism-based
Candida albicans [3] = assay: Induction of mitochondrial membrane potential loss in Candida albicans ATCC SC5314 assessed as polarized cells at 1 umol/ml incubated for 24 hrs by JC-1 staining based flow cytometry assay (reference value: 0.69%); format: functional; conditions: dose 1 µmol/L, at 1 µM
Candida albicans [4] = assay: Induction of mitochondrial membrane potential loss in Candida albicans ATCC SC5314 assessed as normal cells at 1 umol/ml incubated for 24 hrs by JC-1 staining based flow cytometry assay (reference value: 95.26%); format: functional; conditions: dose 1 µmol/L, at 1 µM
Candida albicans [5] = assay: Induction of mitochondrial membrane potential loss in Candida albicans ATCC SC5314 assessed as depolarized cells at 1 umol/ml incubated for 24 hrs by JC-1 staining based flow cytometry assay (reference value: 0.76 to 3.29%); format: functional; conditions: dose 1 µmol/L, at 1 µM
Candida albicans [6] = assay: Induction of apoptosis in Candida albicans ATCC SC5314 assessed as normal cells incuabted for 24 hrs by V-FITC/PI staining based flow cytometry analysis (reference value: 96.78%); format: functional
Candida albicans [7] = assay: Induction of apoptosis in Candida albicans ATCC SC5314 assessed as mid apoptotic cells incuabted for 24 hrs by V-FITC/PI staining based flow cytometry analysis (reference value: 1.09%); format: functional
Candida albicans [8] = assay: Induction of apoptosis in Candida albicans ATCC SC5314 assessed as late apoptotic cells incuabted for 24 hrs by V-FITC/PI staining based flow cytometry analysis (reference value: 0.36%); format: functional
Candida albicans [9] = assay: Induction of apoptosis in Candida albicans ATCC SC5314 assessed as necrotic cells incuabted for 24 hrs by V-FITC/PI staining based flow cytometry analysis (reference value: 1.77%); format: functional

SMILES | MIC50 (Cryptococcus neoformans) [µg/mL] | MIC50 (Candida albicans [1]) [µg/mL] | MIC50 (Pichia kudriavzevii) [µg/mL] | MIC50 (Candida tropicalis) [µg/mL] | MIC50 (Aspergillus fumigatus) [µg/mL] | Activity (Candida albicans [2]) | Activity (Candida albicans [3]) [%] | Activity (Candida albicans [4]) [%] | Activity (Candida albicans [5]) [%] | Activity (Candida albicans [6]) [%] | Activity (Candida albicans [7]) [%] | Activity (Candida albicans [8]) [%] | Activity (Candida albicans [9]) [%]
C[C@H](C(=O)N[C@H](Cn1ccnc1)C(=O)NC1CCCCC1)c1cccc(C(=O)c2ccccc2)c1 | 0.5 (≈ 1.06 µM) | 1 (≈ 2.12 µM) | 1 (≈ 2.12 µM) | 2 (≈ 4.23 µM) | > 8 | – | – | – | – | – | – | – | –
COc1ccc2cc([C@H](C)C(=O)N[C@H](Cn3ccnc3)C(=O)NC3CCCCC3)ccc2c1 | 1 (≈ 2.23 µM) | 1 (≈ 2.23 µM) | 0.5 (≈ 1.11 µM) | 0.5 (≈ 1.11 µM) | 4 (≈ 8.92 µM) | Active | – | – | – | – | – | – | –
COc1ccc2cc([C@H](C)C(=O)NC(Cn3ccnc3)C(=O)c3ccccc3)ccc2c1 (stereo partly drawn) | 0.5 (≈ 1.17 µM) | 0.25 (≈ 0.585 µM) | 0.5 (≈ 1.17 µM) | 0.5 (≈ 1.17 µM) | 2 (≈ 4.68 µM) | – | – | – | – | – | – | – | –
C[C@H](C(=O)NC(Cn1ccnc1)C(=O)c1ccccc1)c1ccc(-c2ccccc2)c(F)c1 (stereo partly drawn) | 0.5 (≈ 1.13 µM) | 0.5 (≈ 1.13 µM) | 0.25 (≈ 0.566 µM) | 0.5 (≈ 1.13 µM) | > 8 | – | – | – | – | – | – | – | –
COC(=O)[C@@H](Cn1cncn1)NC(=O)[C@@H](C)c1ccc(-c2ccccc2)c(F)c1 | 2 (≈ 5.05 µM) | 0.5 (≈ 1.26 µM) | 1 (≈ 2.52 µM) | 2 (≈ 5.05 µM) | 4 (≈ 10.1 µM) | – | – | – | – | – | – | – | –
CC(C)OC(=O)[C@@H](Cn1ccnc1)NC(=O)[C@@H](C)c1cccc(C(=O)c2ccccc2)c1 | 1 (≈ 2.31 µM) | 1 (≈ 2.31 µM) | 0.5 (≈ 1.15 µM) | 2 (≈ 4.61 µM) | > 8 | – | – | – | – | – | – | – | –
COC(=O)[C@@H](Cn1cncn1)NC(=O)[C@@H](C)c1cccc(C(=O)c2ccccc2)c1 | 1 (≈ 2.46 µM) | 0.5 (≈ 1.23 µM) | 0.5 (≈ 1.23 µM) | 1 (≈ 2.46 µM) | 2 (≈ 4.92 µM) | – | 0.54 | 54.56 | 0.9 | 64.15 | 0.26 | 0.9 | 34.69
CC(C)OC(=O)[C@@H](Cn1cncn1)NC(=O)[C@@H](C)c1ccc(-c2ccccc2)c(F)c1 | 1 (≈ 2.36 µM) | 1 (≈ 2.36 µM) | 2 (≈ 4.71 µM) | 0.5 (≈ 1.18 µM) | > 8 | – | – | – | – | – | – | – | –
COC(=O)[C@@H](Cn1ccnc1)NC(=O)[C@@H](C)c1ccc(-c2ccccc2)c(F)c1 | 0.5 (≈ 1.26 µM) | 1 (≈ 2.53 µM) | 0.5 (≈ 1.26 µM) | 2 (≈ 5.06 µM) | > 8 | – | – | – | – | – | – | – | –
COc1ccc2cc([C@H](C)C(=O)N[C@H](Cn3ccnc3)C(=O)OC(C)C)ccc2c1 | 0.5 (≈ 1.22 µM) | 0.5 (≈ 1.22 µM) | 0.25 (≈ 0.611 µM) | 1 (≈ 2.44 µM) | 4 (≈ 9.77 µM) | – | – | – | – | – | – | – | –
COC(=O)[C@@H](Cn1ccnc1)NC(=O)[C@@H](C)c1ccc2cc(OC)ccc2c1 | 0.58 (≈ 1.52 µM) | 0.25 (≈ 0.655 µM) | 1 (≈ 2.62 µM) | 1 (≈ 2.62 µM) | > 8 | – | – | – | – | – | – | – | –
COC(=O)[C@@H](Cn1cncn1)NC(=O)[C@@H](C)c1ccc2cc(OC)ccc2c1 | 0.25 (≈ 0.654 µM) | 0.25 (≈ 0.654 µM) | 1 (≈ 2.61 µM) | 0.25 (≈ 0.654 µM) | 4 (≈ 10.5 µM) | – | – | – | – | – | – | – | –
